The values below come from patent US10934310B2, “Inhibitors of Bruton's tyrosine kinase and method of their use” (JANSSEN PHARMACEUTICA NV, priority 2015, dated 2021).

In this experiment the target is unphosphorylated-BTK kinase domain (UP-BTK), GST-tagged human BTK (389-659aa) (Homo sapiens (Human), UniProt Q06187). In words: BTK Kinase Lanthascreen Binding Assay. The note with it: for IC50: read-out: BTK_I_binding pIC50 (converted); for BTK_I_binding pIC50: Lanthascreen binding, 60 minutes incubation, pIC50 = negative log of the IC50 in molar. Here is the method: BTK Kinase Lanthascreen Binding Assay:
A BTK kinase lanthascreen binding assay monitors compound binding to unphosphorylated-BTK kinase domain (UP-BTK), by competing with a fluorescent labeled tracer. […] Data were analyzed using Xlfit™ version 5.3 from ID Business Solutions (Guildford), Microsoft Excel add-in. pIC50 refers to the negative log of the IC50 in molar.
In general terms: Time-resolved FRET reads energy transfer from a long-lived donor to a nearby acceptor.

unphosphorylated-BTK kinase domain (UP-BTK), GST-tagged human BTK (389-659aa), sequence (Q06187 389-659): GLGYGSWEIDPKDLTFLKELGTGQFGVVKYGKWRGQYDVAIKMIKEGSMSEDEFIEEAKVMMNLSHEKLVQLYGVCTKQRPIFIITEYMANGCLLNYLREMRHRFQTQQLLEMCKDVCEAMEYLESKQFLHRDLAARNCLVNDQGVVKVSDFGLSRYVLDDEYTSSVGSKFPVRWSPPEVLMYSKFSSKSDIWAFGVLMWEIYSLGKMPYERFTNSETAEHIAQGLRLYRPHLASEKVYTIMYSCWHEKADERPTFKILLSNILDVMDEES

In the case of `CCC(=O)N[C@H]1CC[C@H](NC(=O)c2sc3nccc4c3c2NC(=O)N4c2ccc(Oc3ccccc3)nc2C)C1` (single isomer, unassigned) [Example 409, 5-(*S)-(2-Methyl-6-phenoxypyridin-3-yl)-4-oxo-N-((1S,3S)-3-propionamidocyclopentyl)-4,5-dihydro-3H-1-thia-3,5,8-triazaacenaphthylene-2-carboxamide], the IC50 is above 1 µM. On the same count and under the same terms, with `CC(=O)N[C@H]1CC[C@H](NC(=O)c2sc3nccc4c3c2NC(=O)N4c2ccc(Oc3ccccc3)nc2C)C1` (single isomer, unassigned) [Example 410, N-((1S,3S)-3-Acetamidocyclopentyl)-5-(*S)-(2-methyl-6-phenoxypyridin-3-yl)-4-oxo-4,5-dihydro-3H-1-thia-3,5,8-triazaacenaphthylene-2-carboxamide] the figure was above 1 µM; with `C=CC(=O)N[C@@H]1CCC[C@H](NC(=O)c2sc3nccc4c3c2NC(=O)N4c2ccc(Oc3ccccc3)nc2C)C1` (single isomer, unassigned) [Example 411, N-((1S,3R)-3-Acrylamidocyclohexyl)-5-(*S)-(2-methyl-6-phenoxypyridin-3-yl)-4-oxo-4,5-dihydro-3H-1-thia-3,5,8-triazaacenaphthylene-2-carboxamide], above 1 µM; with `CCC(=O)N[C@@H]1CCC[C@H](NC(=O)c2sc3nccc4c3c2NC(=O)N4c2ccc(Oc3ccccc3)nc2C)C1` (single isomer, unassigned) [Example 412, 5-(*S)-(2-Methyl-6-phenoxypyridin-3-yl)-4-oxo-N-((1S,3R)-3-propionamidocyclohexyl)-4,5-dihydro-3H-1-thia-3,5,8-triazaacenaphthylene-2-carboxamide], above 1 µM. Still for that read-out and setting: with `CC(=O)N[C@@H]1CCC[C@H](NC(=O)c2sc3nccc4c3c2NC(=O)N4c2ccc(Oc3ccccc3)nc2C)C1` (single isomer, unassigned) [Example 413, N-((1S,3R)-3-Acetamidocyclohexyl)-5-(*S)-(2-methyl-6-phenoxypyridin-3-yl)-4-oxo-4,5-dihydro-3H-1-thia-3,5,8-triazaacenaphthylene-2-carboxamide] the figure was above 1 µM; with `Cc1nc(Oc2ccccc2)ccc1N1C(=O)Nc2c(C(=O)N[C@H]3CCC[C@@H](N)C3)sc3nccc1c23` (single isomer, unassigned) [Example 414, N-((1S,3R)-3-Aminocyclohexyl)-5-(*S)-(2-methyl-6-phenoxypyridin-3-yl)-4-oxo-4,5-dihydro-3H-1-thia-3,5,8-triazaacenaphthylene-2-carboxamide], above 1 µM. The same measure, in the same setting: with `Cc1nc(Oc2ccccc2)ccc1N1C(=O)Nc2c(C(=O)N[C@H]3CC[C@H](N)C3)sc3nccc1c23` (single isomer, unassigned) [Example 415, N-((1S,3S)-3-Aminocyclopentyl)-5-(*S)-(2-methyl-6-phenoxypyridin-3-yl)-4-oxo-4,5-dihydro-3H-1-thia-3,5,8-triazaacenaphthylene-2-carboxamide] the figure was above 1 µM; with `CCC(=O)N[C@H]1CCC[C@H](NC(=O)c2sc3nccc4c3c2NC(=O)N4c2cnc(Oc3ccccc3)cc2C)C1` (single isomer, unassigned) [Example 416, 5-(*S)-(4-Methyl-6-phenoxypyridin-3-yl)-4-oxo-N-((1S,3R)-3-propionamidocyclohexyl)-4,5-dihydro-3H-1-thia-3,5,8-triazaacenaphthylene-2-carboxamide], above 1 µM. Take `CC(=O)NC1CCC[C@@H](NC(=O)c2sc3nccc4c3c2NC(=O)N4c2cnc(Oc3ccccc3)cc2C)C1` (single isomer, unassigned) [Example 422, N-((1R,3R)-3-Acetamidocyclohexyl)-5-(*S)-(4-methyl-6-phenoxypyridin-3-yl)-4-oxo-4,5-dihydro-3H-1-thia-3,5,8-triazaacenaphthylene-2-carboxamide]: the “BTK_I_binding pIC50” value is listed as 7.72.

On to `CCC(=O)NC1CCC[C@@H](NC(=O)c2sc3nccc4c3c2NC(=O)N4c2cnc(Oc3ccccc3)cc2C)C1` (single isomer, unassigned) [Example 423, 5-(*S)-(4-Methyl-6-phenoxypyridin-3-yl)-4-oxo-N-((1R,3R)-3-propionamidocyclohexyl)-4,5-dihydro-3H-1-thia-3,5,8-triazaacenaphthylene-2-carboxamide], for which the “BTK_I_binding pIC50” value is on record as 7.75. Turning to `C=CC(=O)N[C@H]1CCC[C@H]1NC(=O)c1sc2nccc3c2c1NC(=O)N3c1ccc(Oc2cccnn2)cc1C` (single isomer, unassigned) [Example 424, N-((1R,2S)-2-Acrylamidocyclopentyl)-5-(*S)-(2-methyl-4-(pyridazin-3-yloxy)phenyl)-4-oxo-4,5-dihydro-3H-1-thia-3,5,8-triazaacenaphthylene-2-carboxamide], the “BTK_I_binding pIC50” value was 7.76. `C=CC(=O)N[C@H]1CCC[C@H]1NC(=O)c1sc2nccc3c2c1NC(=O)N3c1ccc(Oc2cccnn2)cc1C` (single isomer, unassigned) [Example 425, N-((1R,2S)-2-Acrylamidocyclopentyl)-5-(*R)-(2-methyl-4-(pyridazin-3-yloxy)phenyl)-4-oxo-4,5-dihydro-3H-1-thia-3,5,8-triazaacenaphthylene-2-carboxamide]: the “BTK_I_binding pIC50” value was 6.67. Turning to `C=CC(=O)N[C@H]1CCC[C@H]1NC(=O)c1sc2nccc3c2c1NC(=O)N3c1cnc(OC(C)C)cc1C` (single isomer, unassigned) [Example 426, N-((1R,2S)-2-Acrylamidocyclopentyl)-5-(*S)-(6-isopropoxy-4-methylpyridin-3-yl)-4-oxo-4,5-dihydro-3H-1-thia-3,5,8-triazaacenaphthylene-2-carboxamide], the “BTK_I_binding pIC50” value worked out at 8.20. The same measure, in the same setting: with `C=CC(=O)N[C@H]1CC[C@@H](NC(=O)c2sc3nccc4c3c2NC(=O)N4c2cnc(OC(C)C)cc2C)C1` (single isomer, unassigned) [Example 427, N-((1R,3S)-3-Acrylamidocyclopentyl)-5-(*S)-(6-isopropoxy-4-methylpyridin-3-yl)-4-oxo-4,5-dihydro-3H-1-thia-3,5,8-triazaacenaphthylene-2-carboxamide] the figure was 7.88. On the same count and under the same terms, with `Cc1cc(OC(C)C)ncc1N1C(=O)Nc2c(C(=O)N[C@@H]3CCC[C@@H]3N)sc3nccc1c23` (single isomer, unassigned) [Example 428, N-((1R,2S)-2-Aminocyclopentyl)-5-(*S)-(6-isopropoxy-4-methylpyridin-3-yl)-4-oxo-4,5-dihydro-3H-1-thia-3,5,8-triazaacenaphthylene-2-carboxamide] the figure was 6.67. Consider `Cc1cc(OC(C)C)ncc1N1C(=O)Nc2c(C(=O)N[C@@H]3CC[C@H](N)C3)sc3nccc1c23` (single isomer, unassigned) [Example 429, N-((1R,3S)-3-Aminocyclopentyl)-5-(*S)-(6-isopropoxy-4-methylpyridin-3-yl)-4-oxo-4,5-dihydro-3H-1-thia-3,5,8-triazaacenaphthylene-2-carboxamide], for which the IC50 is above 1 µM. Regarding `C=CC(=O)N[C@@H]1CC[C@H](NC(=O)c2sc3nccc4c3c2NC(=O)N4c2cnc(Oc3ccccc3)cc2C)C1` (single isomer, unassigned) [Example 430, N-((1S,3R)-3-Acrylamidocyclopentyl)-5-(*S)-(4-methyl-6-phenoxypyridin-3-yl)-4-oxo-4,5-dihydro-3H-1-thia-3,5,8-triazaacenaphthylene-2-carboxamide], the “BTK_I_binding pIC50” value is given as 8.17.

In the case of `Cc1cc(Oc2ccccc2)ncc1N1C(=O)Nc2c(C(=O)N[C@H]3CC[C@@H](N)C3)sc3nccc1c23` (single isomer, unassigned) [Example 431, N-((1S,3R)-3-Aminocyclopentyl)-5-(*S)-(4-methyl-6-phenoxypyridin-3-yl)-4-oxo-4,5-dihydro-3H-1-thia-3,5,8-triazaacenaphthylene-2-carboxamide], the “BTK_I_binding pIC50” value worked out at 6.68. On the same count and under the same terms, with `C=CC(=O)N[C@@H]1CCCC[C@H]1NC(=O)c1sc2nccc3c2c1NC(=O)N3c1ccc(Oc2ccccc2)cc1C` (single isomer, unassigned) [Example 439, N-((1R,2R)-2-Acrylamidocyclohexyl)-5-(*S)-(2-methyl-4-phenoxyphenyl)-4-oxo-4,5-dihydro-3H-1-thia-3,5,8-triazaacenaphthylene-2-carboxamide] the figure was 7.53. As for `Cc1cc(Oc2ccccc2)ccc1N1C(=O)Nc2c(C(=O)N[C@@H]3CCCC[C@H]3N)sc3nccc1c23` (single isomer, unassigned) [Example 440, N-((1R,2R)-2-aminocyclohexyl)-5-(*S)-(2-methyl-4-phenoxyphenyl)-4-oxo-4,5-dihydro-3H-1-thia-3,5,8-triazaacenaphthylene-2-carboxamide], the “BTK_I_binding pIC50” value was 7.07. In the case of `Cc1cc(Oc2ccccc2)ccc1N1C(=O)Nc2c(C(=O)N[C@@H]3CCCC[C@H]3NC(=O)CN)sc3nccc1c23` (single isomer, unassigned) [Example 441, N-((1R,2R)-2-(2-Aminoacetamido)cyclohexyl)-5-(*S)-(2-methyl-4-phenoxyphenyl)-4-oxo-4,5-dihydro-3H-1-thia-3,5,8-triazaacenaphthylene-2-carboxamide], the “BTK_I_binding pIC50” value came to 7.01.

As for `CNCC(=O)N[C@@H]1CCCC[C@@H]1NC(=O)c1sc2nccc3c2c1NC(=O)N3c1ccc(Oc2ccccc2)cc1C` (single isomer, unassigned) [Example 443, 5-(*S)-(2-Methyl-4-phenoxyphenyl)-N-((1S,2R)-2-(2-(methylamino)acetamido)cyclohexyl)-4-oxo-4,5-dihydro-3H-1-thia-3,5,8-triazaacenaphthylene-2-carboxamide], the “BTK_I_binding pIC50” value is reported as 6.74.
